Test results taken from US8364409B2 (priority 2006, dated 2013).

System: sensitive M bovis strain
Assay type: cell-based, Mycobacterium bovis BCG

NNC(=O)c1ccncc1 [INH, isoniazid]
stress response (Impedance Response profile): varies with the drug concentration
